According to DBAASP:
Values after ≈ are worked out from the molar mass of the structure shown. Blank lines part the entries; values can stand above or below the compound they belong to.

Legend:
Experiment in all cases: ≥ marks a high value that may be exact or a test limit, other limits are often not marked, values filed in µg/mL are converted to µM
[1] = system: Bacillus subtilis CICC 24434
Escherichia coli E44813 = system: Escherichia coli E44813
[2] = system: Listeria monocytogenes CICC 21533
[3] = system: Pasteurella multocida C48-3
[4] = system: Salmonella enterica subsp. enterica serovar Choleraesuis C78-1
[5] = system: Salmonella typhimurium SL1344
[6] = system: Shigella flexneri CICC 21534
[7] = system: Staphylococcus aureus ATCC 25923
[8] = system: Staphylococcus epidermidis LY8
Escherichia coli 078 = system: Escherichia coli 078
[9] = system: Escherichia coli ATCC 25922
Escherichia coli UB1005 = system: Escherichia coli UB1005
[10] = system: Lacticaseibacillus rhamnosus 7469
[11] = system: Pseudomonas aeruginosa ATCC 27853
[12] = system: Salmonella enterica subsp. enterica serovar Pullorum ATCC 7913
[13] = system: Salmonella enterica subsp. enterica serovar Typhimurium ATCC 14028
[14] = system: Salmonella enterica subsp. enterica serovar Typhimurium C77-31
[15] = system: Staphylococcus aureus ATCC 29213
[16] = system: Staphylococcus epidermidis ATCC 12228
[17] = system: Streptococcus agalactiae CICC 10465
Streptococcus agalactiae = system: Streptococcus agalactiae
[18] = system: Streptococcus thermophilus YM-C
[19] = system: Acinetobacter baumannii ATCC 17987
[20] = system: Acinetobacter baumannii AYE
[21] = system: Enterococcus faecalis NCTC 12201
[22] = system: Enterococcus faecalis NCTC 12204
[23] = system: Enterococcus faecalis NCTC 775
[24] = system: Escherichia coli NCTC 12923
Klebsiella pneumoniae M6 = system: Klebsiella pneumoniae M6
[25] = system: Klebsiella pneumoniae NCTC 13368
[26] = system: Pseudomonas aeruginosa NCTC 13437
[27] = system: Pseudomonas aeruginosa PAO1
[28] = system: Pseudomonas syringae pv. tomato
Staphylococcus aureus 15 = system: Staphylococcus aureus 15
[29] = system: Staphylococcus aureus NCTC 9144
[30] = system: Xanthomonas axonopodis pv. phaseoli
[31] = system: Mannheimia haemolytica 82-25
[32] = system: Candida albicans FRR 5580
[33] = system: Pseudomonas aeruginosa ATCC 9027
Staphylococcus aureus = system: Staphylococcus aureus
[34] = system: Acinetobacter baumannii ATCC 19606
[35] = system: Escherichia coli D31 CGSC 5165
[36] = system: Pseudomonas aeruginosa ATCC 47085
[37] = system: Staphylococcus aureus ATCC 35556

MIC [1]: 0.524 µM (≈ 1.56 µg/mL)
MIC (Escherichia coli E44813): 4.2 µM (≈ 12.5 µg/mL)
MIC [2]: ≥ 42 µM
MIC [3]: 1.05 µM (≈ 3.12 µg/mL)
MIC [5]: 0.524 µM (≈ 1.56 µg/mL)
MIC [6]: 25.2 µM (≈ 75 µg/mL)
MIC [7]: 0.0084 µM (≈ 0.025 µg/mL)
MIC [8]: 8.4 µM (≈ 25 µg/mL)
SMILES: CC[C@H](C)[C@H](NC(=O)[C@@H](NC(=O)[C@H](Cc1ccccc1)NC(=O)[C@H](CCCCN)NC(=O)[C@@H]1CCCN1C(=O)[C@H](CCCCN)NC(=O)[C@H](CCC(N)=O)NC(=O)[C@@H]1CCCN1C(=O)[C@H](CCCN=C(N)N)NC(=O)[C@H](CCCN=C(N)N)NC(=O)[C@@H](NC(=O)[C@H](CCCN=C(N)N)NC(=O)[C@H](Cc1c[nH]c2ccccc12)NC(=O)[C@H](CC(C)C)NC(=O)[C@H](CC(C)C)NC(=O)[C@H](CC(=O)O)NC(=O)[C@@H](NC(=O)[C@@H](NC(=O)[C@@H](N)CCCN=C(N)N)[C@@H](C)CC)[C@@H](C)CC)C(C)C)C(C)C)C(=O)N[C@H](C(=O)N[C@@H](Cc1c[nH]c2ccccc12)C(=O)N[C@H](C(=O)N[C@@H](CCCN=C(N)N)C(=O)O)C(C)C)C(C)C [RIIDLLWRVRRPQKPKFVIVWVR]
MIC [4]: 0.262 µM (≈ 0.78 µg/mL)

MIC (Escherichia coli 078): ≥ 64 µM
MIC [9]: > 64 µM
MIC (Escherichia coli UB1005): ≥ 64 µM
MIC [10]: ≥ 64 µM
MIC [11]: > 64 µM
MIC [12]: ≥ 64 µM
MIC [13]: > 64 µM
MIC [14]: ≥ 64 µM
MIC [7]: > 64 µM
MIC [15]: > 64 µM
MIC [16]: > 64 µM
MIC [17]: ≥ 64 µM
MIC (Streptococcus agalactiae): ≥ 64 µM
MIC [18]: ≥ 64 µM
SMILES: CC[C@H](C)[C@H](NC(=O)[C@H](CC(C)C)NC(=O)[C@@H](NC(=O)[C@@H](N)CC(=O)O)[C@@H](C)CC)C(=O)N[C@H](C(=O)N[C@H](C(=O)NCC(=O)NCC(N)=O)C(C)C)[C@@H](C)CC [DILIIVGG]

MIC [19]: 5.24 µM (≈ 16 µg/mL)
MIC [20]: 2.62 µM (≈ 8 µg/mL)
MIC [21]: ≥ 42 µM
MIC [22]: ≥ 42 µM
MIC [23]: ≥ 42 µM
MIC [24]: 2.62 µM (≈ 8 µg/mL)
MIC (Klebsiella pneumoniae M6): ≥ 42 µM
MIC [25]: ≥ 42 µM
MIC [26]: ≥ 42 µM
MIC [27]: > 42 µM
MIC [28]: 0.164 µM (≈ 0.5 µg/mL)
MIC (Staphylococcus aureus 15): ≥ 42 µM
MIC [29]: 5.24 µM (≈ 16 µg/mL)
MIC [30]: 0.164 µM (≈ 0.5 µg/mL)
SMILES: CC[C@H](C)[C@H](NC(=O)[C@H](CCC(=O)O)NC(=O)[C@H](CC(N)=O)NC(=O)[C@H](CCCCN)NC(=O)[C@H](CC(C)C)NC(=O)[C@H](CCCCN)NC(=O)[C@H](CCCCN)NC(=O)[C@H](CCCN=C(N)N)NC(=O)[C@@H](NC(=O)[C@H](CCCCN)NC(=O)[C@H](CCC(=O)O)NC(=O)[C@H](CCCCN)NC(=O)[C@H](Cc1c[nH]c2ccccc12)NC(=O)[C@H](C)N)[C@@H](C)CC)C(=O)N[C@@H](CCCCN)C(=O)N[C@@H](CCCCN)C(=O)N[C@@H](CCCCN)C(=O)NCC(=O)N[C@@H](CCCN=C(N)N)C(=O)N[C@@H](CCCCN)C(=O)N[C@@H](C)C(=O)N[C@H](C(=O)N[C@H](C(=O)N[C@@H](C)C(=O)N[C@@H](Cc1c[nH]c2ccccc12)C(=O)O)[C@@H](C)CC)C(C)C [AWKEKIRKKLKNEIKKKGRKAVIAW]

SMILES: C[C@H](N)C(=O)N[C@@H](C)C(=O)N[C@@H](CC(=O)O)C(=O)N[C@@H](CC(=O)O)C(=O)N[C@@H](CC(=O)O)C(=O)N[C@@H](CC(=O)O)C(=O)N[C@@H](CC(=O)O)C(=O)O [AADDDDD]
MIC [31]: 30 µM (≈ 22.1 µg/mL)

MIC [32]: 29.8 µM (≈ 64 µg/mL)
MIC [9]: 7.46 µM (≈ 16 µg/mL)
MIC [33]: 7.46 µM (≈ 16 µg/mL)
MIC [7]: 7.46 µM (≈ 16 µg/mL)
MIC (Staphylococcus aureus): 5.28 µM (≈ 11.3 µg/mL)
SMILES: NCCCC[C@H](NC(=O)[C@H](Cc1c[nH]c2ccccc12)NC(=O)[C@H](Cc1c[nH]c2ccccc12)NC(=O)[C@H](CCCCN)NC(=O)[C@H](Cc1c[nH]c2ccccc12)NC(=O)[C@H](Cc1c[nH]c2ccccc12)NC(=O)[C@H](CCCN=C(N)N)NC(=O)[C@H](Cc1c[nH]c2ccccc12)NC(=O)[C@H](Cc1c[nH]c2ccccc12)NC(=O)[C@H](CCCN=C(N)N)NC(=O)[C@H](CCCCN)NC(=O)[C@@H](N)CCCN=C(N)N)C(=O)N[C@@H](CCCN=C(N)N)C(N)=O [RKRWWRWWKWWKR]

MIC [34]: 0.94 µM (≈ 2.6 µg/mL)
MIC [35]: 0.94 µM (≈ 2.6 µg/mL)
MIC [36]: 15 µM (≈ 41.5 µg/mL)
MIC [37]: 1.88 µM (≈ 5.2 µg/mL)
SMILES: CC[C@H](C)[C@H](NC(=O)[C@H](CCCN=C(N)N)NC(=O)CNC(=O)[C@H](CC(C)C)NC(=O)[C@@H](NC(=O)[C@H](C)NC(=O)[C@H](CCCN=C(N)N)NC(=O)CNC(=O)[C@H](C)NC(=O)CNC(=O)[C@H](CCCN=C(N)N)NC(=O)[C@H](CCSC)NC(=O)[C@H](CCCN=C(N)N)NC(=O)[C@@H](NC(=O)[C@H](Cc1c[nH]c2ccccc12)NC(=O)[C@H](CC(C)C)NC(=O)[C@H](CCC(=O)O)NC(=O)[C@H](CCCN=C(N)N)NC(=O)[C@H](CC(C)C)NC(=O)[C@@H](N)CC(C)C)[C@@H](C)O)C(C)C)C(=O)N[C@@H](CCCN=C(N)N)C(=O)NCC(=O)N[C@@H](CC(C)C)C(=O)N[C@@H](CC(C)C)C(=O)O [LLRELWTRMRGAGRAVLGRIRGLL]
